# Test results from patent publication US9976141B2, “Compositions and methods for inhibiting gene expression of Hif2alpha” (Arrowhead Madison Inc., priority 2015, dated 2018).
# Strand notation (5' to 3'): a small letter for the sugar, then the base; units joined by * are phosphorothioate-linked, units joined directly phosphodiester-linked; [ ] holds rarer units or linkages, { } end groups; capitals alone tell only the bases. d = 2'-deoxy (DNA); m = 2'-O-methyl; f = 2'-fluoro
# System: human EPAS1 (Hif2α) cDNA in psiCHECK2 (Renilla luciferase/EPAS1 fusion mRNA) in Hep3B cells
# Experiment: Efficacy screen of Hif2α RNAi triggers in vitro, dual-luciferase reporter assay (1 nM and 0.1 nM)
# Type: cell-based
# Conditions: Hep3B cells co-transfected with EPAS1-psiCHECK2, Renilla luciferase normalized to firefly luciferase
# In short: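 Knockdown read by dual-luciferase assay: Renilla signal from the Renilla/EPAS1 fusion transcript divided by firefly luciferase expressed from the same plasmid. Triggers (modified canonical siRNAs, 1 nM or 0.1 nM) were co-transfected with 25 ng reporter plasmid per well into human hepatocellular carcinoma Hep3B cells.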
substance,measurement,setting,value
2385 (sense fUmGfGmUfUmUfUmUfCmAfAmUfAmCfCmAfAmUfAdT; antisense dTfAmUfUmGfGmUfAmUfUmGfAmAfAmAfAmCfCmAdT*dT; siRNA) [compound 2385],Relative Rluc-Hif2α,0.1 nM RNAi trigger,0.701 ± 0.178
same,Relative Rluc-Hif2α,1 nM RNAi trigger,0.515 ± 0.089
2386 (sense fUmUfCmAfAmUfAmCfCmAfAmUfUmAfCmAfUmGfAdT; antisense dTfCmAfUmGfUmAfAmUfUmGfGmUfAmUfUmGfAmAdT*dT; siRNA) [compound 2386],Relative Rluc-Hif2α,0.1 nM RNAi trigger,0.603 ± 0.032
same,Relative Rluc-Hif2α,1 nM RNAi trigger,0.274 ± 0.087
2387 (sense fAmUfAmCfCmAfAmUfUmAfCmAfUmGfGmAfAmCfAdT; antisense dTfGmUfUmCfCmAfUmGfUmAfAmUfUmGfGmUfAmUdT*dT; siRNA) [compound 2387],Relative Rluc-Hif2α,0.1 nM RNAi trigger,0.436 ± 0.028
same,Relative Rluc-Hif2α,1 nM RNAi trigger,0.201 ± 0.063
2388 (sense fCmCfAmAfCmUfAmUfUmUfAmGfUmAfAmGfCmCfAdT; antisense dTfGmGfCmUfUmAfCmUfAmAfAmUfAmGfUmUfGmGdT*dT; siRNA) [compound 2388],Relative Rluc-Hif2α,0.1 nM RNAi trigger,0.901 ± 0.318
same,Relative Rluc-Hif2α,1 nM RNAi trigger,0.436 ± 0.021
2389 (sense fAmAfCmUfAmUfUmUfAmGfUmAfAmGfCmCfCmGfAdT; antisense dTfCmGfGmGfCmUfUmAfCmUfAmAfAmUfAmGfUmUdT*dT; siRNA) [compound 2389],Relative Rluc-Hif2α,0.1 nM RNAi trigger,1.085 ± 0.307
same,Relative Rluc-Hif2α,1 nM RNAi trigger,0.820 ± 0.184
2390 (sense fAmCfUmAfUmUfUmAfGmUfAmAfGmCfCmCfGmGfAdT; antisense dTfCmCfGmGfGmCfUmUfAmCfUmAfAmAfUmAfGmUdT*dT; siRNA) [compound 2390],Relative Rluc-Hif2α,0.1 nM RNAi trigger,0.772 ± 0.175
same,Relative Rluc-Hif2α,1 nM RNAi trigger,0.568 ± 0.108
2391 (sense fAmGfAmAfAmUfUmCfCmUfUmAfGmUfCmAfUmGfAdT; antisense dTfCmAfUmGfAmCfUmAfAmGfGmAfAmUfUmUfCmUdT*dT; siRNA) [compound 2391],Relative Rluc-Hif2α,0.1 nM RNAi trigger,0.273 ± 0.006
same,Relative Rluc-Hif2α,1 nM RNAi trigger,0.129 ± 0.015
2392 (sense fCmAfUmUfAmAfGmGfGmCfAmUfUmUfUmAfCmCfAdT; antisense dTfGmGfUmAfAmAfAmUfGmCfCmCfUmUfAmAfUmGdT*dT; siRNA) [compound 2392],Relative Rluc-Hif2α,0.1 nM RNAi trigger,0.636 ± 0.039
same,Relative Rluc-Hif2α,1 nM RNAi trigger,0.283 ± 0.052
2393 (sense fUmAfAmGfGmGfCmAfUmUfUmUfAmCfCmCfUmUfAdT; antisense dTfAmAfGmGfGmUfAmAfAmAfUmGfCmCfCmUfUmAdT*dT; siRNA) [compound 2393],Relative Rluc-Hif2α,0.1 nM RNAi trigger,0.862 ± 0.388
same,Relative Rluc-Hif2α,1 nM RNAi trigger,1.049 ± 0.089
2394 (sense fAmGfCmUfUmCfAmUfAmUfUmAfAmCfCmCfUmAfAdT; antisense dTfUmAfGmGfGmUfUmAfAmUfAmUfGmAfAmGfCmUdT*dT; siRNA) [compound 2394],Relative Rluc-Hif2α,0.1 nM RNAi trigger,0.533 ± 0.076
same,Relative Rluc-Hif2α,1 nM RNAi trigger,0.254 ± 0.026
2395 (sense fUmAfUmUfAmAfCmCfCmUfAmCfCmUfGmUfCmAfAdT; antisense dTfUmGfAmCfAmGfGmUfAmGfGmGfUmUfAmAfUmAdT*dT; siRNA) [compound 2395],Relative Rluc-Hif2α,0.1 nM RNAi trigger,0.494 ± 0.104
same,Relative Rluc-Hif2α,1 nM RNAi trigger,0.218 ± 0.029
2396 (sense fUmUfAmAfCmCfCmUfAmCfCmUfGmUfCmAfAmCfAdT; antisense dTfGmUfUmGfAmCfAmGfGmUfAmGfGmGfUmUfAmAdT*dT; siRNA) [compound 2396],Relative Rluc-Hif2α,0.1 nM RNAi trigger,1.321 ± 0.070
same,Relative Rluc-Hif2α,1 nM RNAi trigger,0.939 ± 0.299
2397 (sense fAmCfCmCfUmAfCmCfUmGfUmCfAmAfCmGfUmAfAdT; antisense dTfUmAfCmGfUmUfGmAfCmAfGmGfUmAfGmGfGmUdT*dT; siRNA) [compound 2397],Relative Rluc-Hif2α,0.1 nM RNAi trigger,0.254 ± 0.048
same,Relative Rluc-Hif2α,1 nM RNAi trigger,0.119 ± 0.024
2398 (sense fCmCfCmUfAmCfCmUfGmUfCmAfAmCfGmUfAmAfAdT; antisense dTfUmUfAmCfGmUfUmGfAmCfAmGfGmUfAmGfGmGdT*dT; siRNA) [compound 2398],Relative Rluc-Hif2α,0.1 nM RNAi trigger,1.047 ± 0.047
same,Relative Rluc-Hif2α,1 nM RNAi trigger,0.534 ± 0.043
2399 (sense fCmCfUmAfCmCfUmGfUmCfAmAfCmGfUmAfAmCfAdT; antisense dTfGmUfUmAfCmGfUmUfGmAfCmAfGmGfUmAfGmGdT*dT; siRNA) [compound 2399],Relative Rluc-Hif2α,0.1 nM RNAi trigger,0.784 ± 0.071
same,Relative Rluc-Hif2α,1 nM RNAi trigger,0.418 ± 0.081
2400 (sense fCmUfAmCfCmUfGmUfCmAfAmCfGmUfAmAfCmGfAdT; antisense dTfCmGfUmUfAmCfGmUfUmGfAmCfAmGfGmUfAmGdT*dT; siRNA) [compound 2400],Relative Rluc-Hif2α,0.1 nM RNAi trigger,0.478 ± 0.028
same,Relative Rluc-Hif2α,1 nM RNAi trigger,0.165 ± 0.020
2401 (sense fUmAfCmCfUmGfUmCfAmAfCmGfUmAfAmCfGmAfAdT; antisense dTfUmCfGmUfUmAfCmGfUmUfGmAfCmAfGmGfUmAdT*dT; siRNA) [compound 2401],Relative Rluc-Hif2α,0.1 nM RNAi trigger,0.375 ± 0.062
same,Relative Rluc-Hif2α,1 nM RNAi trigger,0.174 ± 0.003
2402 (sense fAmCfCmUfGmUfCmAfAmCfGmUfAmAfCmGfAmUfAdT; antisense dTfAmUfCmGfUmUfAmCfGmUfUmGfAmCfAmGfGmUdT*dT; siRNA) [compound 2402],Relative Rluc-Hif2α,0.1 nM RNAi trigger,0.389 ± 0.060
same,Relative Rluc-Hif2α,1 nM RNAi trigger,0.128 ± 0.015
2403 (sense fCmCfUmGfUmCfAmAfCmGfUmAfAmCfGmAfUmUfAdT; antisense dTfAmAfUmCfGmUfUmAfCmGfUmUfGmAfCmAfGmGdT*dT; siRNA) [compound 2403],Relative Rluc-Hif2α,0.1 nM RNAi trigger,0.930 ± 0.132
same,Relative Rluc-Hif2α,1 nM RNAi trigger,0.568 ± 0.106
2404 (sense fCmUfGmUfCmAfAmCfGmUfAmAfCmGfAmUfUmUfAdT; antisense dTfAmAfAmUfCmGfUmUfAmCfGmUfUmGfAmCfAmGdT*dT; siRNA) [compound 2404],Relative Rluc-Hif2α,0.1 nM RNAi trigger,0.234 ± 0.045
same,Relative Rluc-Hif2α,1 nM RNAi trigger,0.104 ± 0.019
2405 (sense fUmGfUmCfAmAfCmGfUmAfAmCfGmAfUmUfUmCfAdT; antisense dTfGmAfAmAfUmCfGmUfUmAfCmGfUmUfGmAfCmAdT*dT; siRNA) [compound 2405],Relative Rluc-Hif2α,0.1 nM RNAi trigger,0.261 ± 0.044
same,Relative Rluc-Hif2α,1 nM RNAi trigger,0.138 ± 0.035
2406 (sense fUmCfAmAfCmGfUmAfAmCfGmAfUmUfUmCfAmUfAdT; antisense dTfAmUfGmAfAmAfUmCfGmUfUmAfCmGfUmUfGmAdT*dT; siRNA) [compound 2406],Relative Rluc-Hif2α,0.1 nM RNAi trigger,0.241 ± 0.022
same,Relative Rluc-Hif2α,1 nM RNAi trigger,0.168 ± 0.044
2407 (sense fAmCfGmUfAmAfCmGfAmUfUmUfCmAfUmGfAmAfAdT; antisense dTfUmUfCmAfUmGfAmAfAmUfCmGfUmUfAmCfGmUdT*dT; siRNA) [compound 2407],Relative Rluc-Hif2α,0.1 nM RNAi trigger,0.222 ± 0.027
same,Relative Rluc-Hif2α,1 nM RNAi trigger,0.124 ± 0.021
2408 (sense fUmAfUmUfAmUfAmUfUmGfUmCfGmAfAmUfUmCfAdT; antisense dTfGmAfAmUfUmCfGmAfCmAfAmUfAmUfAmAfUmAdT*dT; siRNA) [compound 2408],Relative Rluc-Hif2α,0.1 nM RNAi trigger,0.730 ± 0.045
same,Relative Rluc-Hif2α,1 nM RNAi trigger,0.282 ± 0.004
2409 (sense fUmUfAmUfAmUfUmGfUmCfGmAfAmUfUmCfCmUfAdT; antisense dTfAmGfGmAfAmUfUmCfGmAfCmAfAmUfAmUfAmAdT*dT; siRNA) [compound 2409],Relative Rluc-Hif2α,0.1 nM RNAi trigger,0.301 ± 0.085
same,Relative Rluc-Hif2α,1 nM RNAi trigger,0.104 ± 0.020
2410 (sense fUmAfUmUfGmUfCmGfAmAfUmUfCmCfUmAfCmUfAdT; antisense dTfAmGfUmAfGmGfAmAfUmUfCmGfAmCfAmAfUmAdT*dT; siRNA) [compound 2410],Relative Rluc-Hif2α,0.1 nM RNAi trigger,0.228 ± 0.033
same,Relative Rluc-Hif2α,1 nM RNAi trigger,0.154 ± 0.022
2411 (sense fGmAfAmUfUmCfCmUfAmCfUmGfAmCfAmAfCmAfAdT; antisense dTfUmGfUmUfGmUfCmAfGmUfAmGfGmAfAmUfUmCdT*dT; siRNA) [compound 2411],Relative Rluc-Hif2α,0.1 nM RNAi trigger,0.796 ± 0.110
same,Relative Rluc-Hif2α,1 nM RNAi trigger,0.410 ± 0.083
2412 (sense fUmCfCmUfAmCfUmGfAmCfAmAfCmAfUmUfAmUfAdT; antisense dTfAmUfAmAfUmGfUmUfGmUfCmAfGmUfAmGfGmAdT*dT; siRNA) [compound 2412],Relative Rluc-Hif2α,0.1 nM RNAi trigger,0.515 ± 0.037
same,Relative Rluc-Hif2α,1 nM RNAi trigger,0.291 ± 0.014
2413 (sense fUmAfUmAfAmCfUmGfUmAfUmGfGmGfAmGfCmUfAdT; antisense dTfAmGfCmUfCmCfCmAfUmAfCmAfGmUfUmAfUmAdT*dT; siRNA) [compound 2413],Relative Rluc-Hif2α,0.1 nM RNAi trigger,0.675 ± 0.104
same,Relative Rluc-Hif2α,1 nM RNAi trigger,0.317 ± 0.055
2414 (sense fUmAfAmCfUmGfUmAfUmGfGmGfAmGfCmUfUmAfAdT; antisense dTfUmAfAmGfCmUfCmCfCmAfUmAfCmAfGmUfUmAdT*dT; siRNA) [compound 2414],Relative Rluc-Hif2α,0.1 nM RNAi trigger,0.422 ± 0.070
same,Relative Rluc-Hif2α,1 nM RNAi trigger,0.167 ± 0.038
2415 (sense fUmGfUmAfUmGfGmGfAmGfCmUfUmAfAmCfUmUfAdT; antisense dTfAmAfGmUfUmAfAmGfCmUfCmCfCmAfUmAfCmAdT*dT; siRNA) [compound 2415],Relative Rluc-Hif2α,0.1 nM RNAi trigger,0.180 ± 0.097
same,Relative Rluc-Hif2α,1 nM RNAi trigger,0.119 ± 0.015
2416 (sense fUmUfGmAfCmAfCmUfGmGfUmAfUmCfUmUfAmUfAdT; antisense dTfAmUfAmAfGmAfUmAfCmCfAmGfUmGfUmCfAmAdT*dT; siRNA) [compound 2416],Relative Rluc-Hif2α,0.1 nM RNAi trigger,0.247 ± 0.031
same,Relative Rluc-Hif2α,1 nM RNAi trigger,0.166 ± 0.031
